# Tests used:
# Type in all cases: physicochemical
# [1] = Physical phenomena of active ingredient / water-soluble solvent / water ternary mixtures; settings: for mass ratio of water:EtOH (x:1) forming a liquid-liquid phase separation state: both at 0 h and 24 h after standing; for formation of a liquid-liquid phase separation system with ethanol and water: bupivacaine:EtOH 1:2, ropivacaine:EtOH 1:10
# Protocol: (§1) A stock solution was prepared with a mass ratio of CAP:EtOH=1:5. Then, 0.5 g samples of the stock solution were taken and respectively added into PE tubes, and different amounts of water (based on mass ratio of water to CAP) were added according to Table 6. […]
# According to the protocols in Examples 4.1-4.3, the physical states of mixtures containing CAP and EtOH (at mass ratios of 1:1, 1:5, and 1:10) and different proportions of water (based on mass ratio of water to CAP) were studied at 0 h and 24 h after standing. […]
# as §1, with “bupivacaine:EtOH=1:2.” for “CAP:EtOH=1:5.”, “on” for “on mass”, “bupivacaine)” for “CAP)”, “14. The ternary mixtures were shaken and observed at 0 h and 24 h after standing.” for “6.”
# [2] = as above
# physchem = settings: for solubility at 24 h: 25 °C, thermodynamic from solid
# Protocol: About 3 g of each solvent was weighed according to Table 3, and an excess amount of capsaicin was added. The mixture was placed into a constant-temperature oscillator for oscillation for 24 h (25° C., 200 rpm), and then centrifuged at 10000 rpm for 30 min. The supernatant was taken to measure the capsaicin content. The solubility of CAP in different solvents (different pH buffers, commonly used oil phases, and water-soluble organic solvents) was measured, with the results shown in Table 3: […]
smiles,measurement,setting,value
"COc1cc(CNC(=O)CCCC/C=C/C(C)C)ccc1O [CAP, capsaicin]",mass ratio of water:EtOH (x:1) forming a liquid-liquid phase separation state,[1]; CAP:EtOH 1:1,0.65-2
same,mass ratio of water:EtOH (x:1) forming a liquid-liquid phase separation state,[1]; CAP:EtOH 1:5,1-2.2
same,mass ratio of water:EtOH (x:1) forming a liquid-liquid phase separation state,[1]; CAP:EtOH 1:10,1.4-2.5
same,formation of a liquid-liquid phase separation system with PEG200 and water,[1]; CAP:PEG200 1:3,could not form a liquid-liquid phase separation system
same,formation of a liquid-liquid phase separation system with PEG200 and water,[1]; CAP:PEG200 1:5 (increased mass of PEG200),failed to enable the formation of a liquid-liquid phase separation system
same,formation of a liquid-liquid phase separation system with propylene glycol and water,[1]; CAP:propylene glycol 1:5,failed to form a liquid-liquid phase separation system
same,mass ratio of water:DGME (x:1) forming a liquid-liquid phase separation system,[2]; CAP:DGME 1:1,1-2
same,mass ratio of water:DMI (x:1) forming a liquid-liquid phase separation system,[2]; CAP:DMI 1:3,0.3-2
same,mass ratio of water:IPA (x:1) forming a liquid-liquid phase separation system,[2]; CAP:IPA 1:1,0.5-2
same,solubility at 24 h,"physchem; oil or lipid, Castor oil, shaken at 25° C. for 24 h",36 mg/mL
same,solubility at 24 h,"physchem; oil or lipid, GDO, shaken at 25° C. for 24 h",45 mg/mL
same,solubility at 24 h,"physchem; oil or lipid, MCT, shaken at 25° C. for 24 h",14 mg/mL
same,solubility at 24 h,"physchem; organic solvent or mixture, DGME, shaken at 25° C. for 24 h",502 mg/mL
same,solubility at 24 h,"physchem; organic solvent or mixture, DMI, shaken at 25° C. for 24 h",> 500 mg/mL
same,solubility at 24 h,"physchem; organic solvent or mixture, Ethanol, shaken at 25° C. for 24 h",> 500 mg/mL
same,solubility at 24 h,"physchem; organic solvent or mixture, Isopropanol, shaken at 25° C. for 24 h",> 500 mg/mL
same,solubility at 24 h,"physchem; organic solvent or mixture, PEG200, shaken at 25° C. for 24 h",367 mg/mL
same,solubility at 24 h,"physchem; organic solvent or mixture, Propylene glycol, shaken at 25° C. for 24 h",290 mg/mL
same,solubility at 24 h,"physchem; organic solvent or mixture, in some water-soluble organic solvents",> 250 mg/mL
same,solubility at 24 h,"physchem; pH 1, simulated gastric fluid, pH 1.0 hydrochloric acid medium, shaken at 25° C. for 24 h",0.045 mg/mL
same,solubility at 24 h,"physchem; pH 2, simulated gastric fluid, pH 2.0 hydrochloric acid medium, shaken at 25° C. for 24 h",0.052 mg/mL
same,solubility at 24 h,"physchem; pH 3, aqueous buffer, pH 3.0 phosphate medium, shaken at 25° C. for 24 h",0.044 mg/mL
same,solubility at 24 h,"physchem; pH 4, aqueous buffer, pH 4.0 acetate medium, shaken at 25° C. for 24 h",0.053 mg/mL
same,solubility at 24 h,"physchem; pH 5, aqueous buffer, pH 5.0 acetate medium, shaken at 25° C. for 24 h",0.052 mg/mL
same,solubility at 24 h,"physchem; pH 6, aqueous buffer, pH 6.0 phosphate medium, shaken at 25° C. for 24 h",0.046 mg/mL
same,solubility at 24 h,"physchem; pH 7, aqueous buffer, pH 7.0 phosphate medium, shaken at 25° C. for 24 h",0.045 mg/mL
same,solubility at 24 h,"physchem; pH 8, aqueous buffer, pH 8.0 phosphate medium, shaken at 25° C. for 24 h",0.042 mg/mL
same,solubility at 24 h,"physchem; pH 9, aqueous buffer, pH 9.0 carbonate medium, shaken at 25° C. for 24 h",0.053 mg/mL
same,solubility at 24 h,"physchem; pH 10, aqueous buffer, pH 10.0 carbonate medium, shaken at 25° C. for 24 h",0.102 mg/mL
same,Solubility,"physchem; Corn oil, shaken at 25° C. for 24 h",5 mg/mL
same,Solubility,"physchem; Peanut oil, shaken at 25° C. for 24 h",5 mg/mL
same,Solubility,"physchem; Rapeseed oil, shaken at 25° C. for 24 h",5 mg/mL
CCCCN1CCCCC1C(=O)Nc1c(C)cccc1C (stereo not shown) [bupivacaine],formation of a liquid-liquid phase separation system with ethanol and water,[1],failed to form a liquid-liquid phase separation system
CCCN1CCCC[C@H]1C(=O)Nc1c(C)cccc1C [ropivacaine],formation of a liquid-liquid phase separation system with ethanol and water,[1],failed to form a liquid-liquid phase separation system
